Numbers after ± are expanded uncertainties.
Details: Liquid; for mass density: 293.15 K, 101.33 kPa, Vibrating tube method

Structure (SMILES) | mass density [kg/m3] | other results
Cc1ccccc1C [1,2-dimethylbenzene] | 879.68 ± 0.93 | vapor or sublimation pressure (417.58 K): 101.33 ± 1.9 kPa
Cc1cccc(C)c1 [1,3-dimethylbenzene] | 864.11 ± 0.91 | vapor or sublimation pressure (412.27 K): 101.33 ± 1.4 kPa
Cc1ccc(C)cc1 [1,4-dimethylbenzene] | 861.21 ± 0.91 | vapor or sublimation pressure (411.51 K): 101.33 ± 1.9 kPa
CCCCO [butan-1-ol] | 809.5 ± 0.24 | vapor or sublimation pressure (390.85 K): 101.33 ± 1.3 kPa
CCc1ccccc1 [ethylbenzene] | 866.54 ± 0.58 | vapor or sublimation pressure (409.27 K): 101.33 ± 1.3 kPa

— the NIST ThermoML archive (doi:10.1021/je201053v)
